Measured values as given in ChEMBL document CHEMBL4130459, “3,5-Dimethylorsellinic Acid Derived Meroterpenoids from Penicillium chrysogenum MT-12, an Endophytic Fungus Isolated from Huperzia serrata” (J Nat Prod, 2017).

Legend:
RAW264.7 [1] = experiment: Cytotoxicity against mouse RAW264.7 cells by MTT assay; type: cell-based
RAW264.7 [2] = experiment: Inhibition of LPS-induced nitric oxide production in mouse RAW264.7 cells after 24 hrs by Griess assay; type: functional, cell-based; details: RAW264.7, 24 h
RAW264.7 [3] = experiment: Inhibition of LPS-induced nitric oxide production in mouse RAW264.7 cells at 80 uM after 24 hrs by Griess assay relative to control; type: functional; details: RAW264.7, 24 h

SMILES | Activity (RAW264.7 [1]) | IC50 (RAW264.7 [2]) [µM] | inhibition at 80 µM (RAW264.7 [3]) [%]
COC(=O)[C@]12C(=O)[C@@H](C)O[C@@H]3OC(=O)[C@](C)(C[C@@H]4[C@]1(C)CC=C1C(=CC(=O)OC1(C)C)[C@@]4(C)O)[C@@H]32 | Non-Toxic | 78.2 | –
C[C@H]1OC(=O)[C@@]23[C@@H]4[C@H]5OC(=O)[C@]4(C)C[C@@H]4[C@]2(C)[C@H](C=C2C(=CC(=O)OC2(C)C)[C@@]42CO2)O[C@@]13O5 | – | – | < 50
COC(=O)[C@]1(C)O[C@H]2OC(=O)[C@@H]3[C@H]2[C@@](C)(C[C@H]2C(C)=C4CC(=O)OC(C)(C)C4=CC[C@]32C)C1=O | – | – | < 50
C[C@H]1O[C@@H]2OC(=O)[C@]3(C)C[C@@H]4[C@@]5(C)C(=C1O[C@H]5C=C1C(=CC(=O)OC1(C)C)[C@@]41CO1)[C@]23O | Non-Toxic | 24 | –
COC(=O)[C@]12C[C@@](C)(O)C(=O)[C@](C)(C[C@H]3C(C)=C4CC(=O)OC(C)(C)C4=CC[C@@]31C)[C@]21CO1 | – | – | < 50
C[C@H]1O[C@@H]2OC(=O)[C@]3(C)C[C@@H]4[C@@]5(C)C(=C1O[C@H]5C=C1C(=CC(=O)OC1(C)C)[C@@]41CO1)[C@H]23 | – | – | < 50
COC(=O)[C@]12C(=O)[C@@H](C)O[C@@H]3OC(=O)[C@](C)(C[C@H]4[C@]5(CO5)C5=CC(=O)OC(C)(C)[C@]56O[C@@H]6C[C@@]41C)[C@@H]32 | – | – | < 50
COC(=O)[C@]12C(=O)[C@@H](C)O[C@@H]3OC(=O)[C@](C)(C[C@H]4C(C)=C5CC(=O)OC(C)(C)C5=CC[C@@]41C)[C@@H]32 | – | – | < 50
C[C@@H]1O[C@H]2OC(=O)[C@@]3(C)C[C@H]4[C@@](C)(C(=O)C=C5C(=CC(=O)OC5(C)C)[C@]45CO5)[C@@H](C1=O)[C@@]23O | Non-Toxic | 12.7 | –
COC(=O)[C@]12C(=O)[C@H](C)O[C@@H]3OC(=O)[C@](C)(C[C@H]4[C@]5(CO5)C5=CC(=O)OC(C)(C)C5=CC[C@@]41C)[C@@H]32 [BERKELEYACETAL B] | – | – | < 50
C[C@@H]1O[C@@H]2OC(=O)[C@]3(C)C[C@@H]4[C@](C)(C(=O)C=C5C(=CC(=O)OC5(C)C)[C@@]45CO5)[C@H](C1=O)[C@H]23 [BERKELEYACETAL C] | Non-Toxic | 4.3 | –
C=C1[C@@]2(C)C[C@H]3C(C)=C4CC(=O)OC(C)(C)C4=CC[C@]3(C)[C@]1(C(=O)OC)C(=O)[C@@](C)(O)C2=O [BERKELEYDIONE] | – | – | < 50
C=C1[C@@]2(C)C[C@@H]3[C@](C)(CC=C4C(C)(C)OC(=O)CC[C@]43C)[C@]1(C(=O)OC)C(=O)[C@@](C)(O)C2=O [BERKELEYONE B] | – | – | < 50
COc1ccc2c(c1)c(CC(=O)O)c(C)n2C(=O)c1ccc(Cl)cc1 [INDOMETHACIN] | – | 33.6 | –
